Active and inactive are the calls of the source. The rule behind the calls is not given here. Where a SMILES comes first, the peptide text is derived from it. Bridges are numbered along the chain shown (N, C = ends).
Legend:
Splenocyte [1] = test: Antiasthmatic activity in splenocytes isolated from 25 days OVA-immunized BALB/c mouse acute asthma model assessed as reduction of IL-13 and IL-5 production at 100 nM measured after 3 days re-stimulation by ELISA; type: functional, cell-based
Mus musculus [2] = organism: Mus musculus; test: Antiasthmatic activity in lymphnode cells isolated from 25 days OVA-immunized BALB/c mouse acute asthma model assessed as reduction of IFN-gamma production at 100 nM measured after 3 days re-stimulation by ELISA; type: functional, cell-based
Mus musculus [3] = organism: Mus musculus; test: Antiasthmatic activity in OVA-immunized BALB/c mouse chronic asthma model assessed as reduction of 8-isoprostane level in serum at 10 uM treated intranasally by immunoassay; type: functional, organism-based
Mus musculus [4] = organism: Mus musculus; test: Antiasthmatic activity in OVA-immunized BALB/c mouse chronic asthma model assessed as reduction of airway inflammation at 100 nM treated intranasally on days 15, 16, 22, and 23 at 30 mins before OVA challenge by hematoxylin and eosin staining measured on day 71; type: functional, organism-based
Mus musculus [5] = organism: Mus musculus; test: Antiasthmatic activity in OVA-immunized BALB/c mouse chronic asthma model assessed as reduction of mMCP-1 level in serum at 100 nM treated intranasally at 30 mins before OVA challenge measured after 30 mins by ELISA; type: functional, organism-based
Mus musculus [6] = organism: Mus musculus; test: Antiasthmatic activity in OVA-immunized BALB/c mouse chronic asthma model assessed as inhibition of tryptase-like protease activity in BAL fluid using tosyl-gly […]-lys-pNA as substrate at 100 nM after 1 hr relative to control; type: functional
Mus musculus [7] = organism: Mus musculus; test: Antiasthmatic activity in OVA-immunized BALB/c mouse chronic asthma model assessed as inhibition of airway inflammation at 100 nM treated intranasally on days 15, 16, 22, and 23 at 30 mins before OVA challenge measured on day 71; type: functional, organism-based
Mus musculus [8] = organism: Mus musculus; test: Antiasthmatic activity in OVA-immunized BALB/c mouse chronic asthma model assessed as reduction of total lung collagen level at 100 nM treated intranasally on days 15, 16, 22, and 23 at 30 mins before OVA challenge measured on day 71 by MSB-staining; type: functional, organism-based
Mus musculus [9] = organism: Mus musculus; test: Antiasthmatic activity in OVA-immunized BALB/c mouse acute asthma model assessed as reduction of IgG2a level in serum at 100 nM treated intranasally on days 15, 16, 22, and 23 at 30 mins before OVA challenge; type: functional, organism-based
Mus musculus [10] = organism: Mus musculus; test: Antiasthmatic activity in OVA-immunized BALB/c mouse acute asthma model assessed as reduction of IgE level in serum at 100 nM treated intranasally on days 15, 16, 22, and 23 at 30 mins before OVA challenge; type: functional, organism-based
Mus musculus [11] = organism: Mus musculus; test: Antiasthmatic activity in OVA-immunized BALB/c mouse acute asthma model assessed as decrease in number of eosinophils in BAL fluid at 100 nM treated intranasally on days 15, 16, 22, and 23 at 30 mins before OVA challenge; type: functional, organism-based
Mus musculus [12] = organism: Mus musculus; test: Antiasthmatic activity in OVA-immunized BALB/c mouse chronic asthma model assessed as plasma histamine release at 0.1 uM treated intranasally after 5 mins by immunoassay; type: functional, organism-based
Splenocyte [13] = test: Antiasthmatic activity in splenocytes isolated from 25 days OVA-immunized BALB/c mouse acute asthma model assessed as reduction of IFN-gamma production at 100 nM measured after 3 days re-stimulation by ELISA; type: functional, cell-based
[14] = Inhibition of bovine trypsin using benzoyl-L-arginine p-nitroanilide as substrate after 5 to 60 mins; design: species or system Bos taurus
Mus musculus [15] = organism: Mus musculus; test: Antiasthmatic activity in OVA-immunized BALB/c mouse chronic asthma model assessed as inhibition of tryptase-like protease activity in BAL fluid using tosyl-gly […]-lys-pNA as substrate after 1 hr; type: functional, organism-based
Mus musculus [16] = organism: Mus musculus; test: Antiasthmatic activity in OVA-immunized BALB/c mouse chronic asthma model assessed as reduction of collagen and old fibrin at 100 nM treated intranasally on days 15, 16, 22, and 23 at 30 mins before OVA challenge measured on day 71 by martius scarlet blue-staining; type: functional, organism-based
Mus musculus [17] = organism: Mus musculus; test: Antiasthmatic activity in OVA-immunized BALB/c mouse chronic asthma model assessed as plasma histamine release at 10 uM treated intranasally after 5 mins by immunoassay; type: functional, organism-based
Mus musculus [18] = organism: Mus musculus; test: Antiasthmatic activity in OVA-immunized BALB/c mouse chronic asthma model assessed as reduction of decrease in smooth muscle area at 100 nM treated intranasally on days 15, 16, 22, and 23 at 30 mins before OVA challenge measured on day 71 by alpha-SMA-staining; type: functional, organism-based; settings: Muscle tissue
Mus musculus [19] = organism: Mus musculus; test: Antiasthmatic activity in OVA-immunized BALB/c mouse chronic asthma model assessed as reduction of IgE level in serum at 100 nM treated intranasally on days 15, 16, 22, and 23 at 30 mins before OVA challenge measured on day 71; type: functional, organism-based
Mus musculus [20] = organism: Mus musculus; test: Antiasthmatic activity in OVA-immunized BALB/c mouse acute asthma model assessed as reduction of mucus production in PAS-stained lung section at 100 nM treated intranasally on days 15, 16, 22, and 23 at 30 mins before OVA challenge; type: functional, organism-based
Mus musculus [21] = organism: Mus musculus; test: Antiasthmatic activity in OVA-immunized BALB/c mouse acute asthma model assessed as reduction of methacholine-induced lung resistance at 100 nM treated intranasally on days 15, 16, 22, and 23 at 30 mins before OVA challenge; type: functional, organism-based
Mus musculus [22] = organism: Mus musculus; test: Antiasthmatic activity in OVA-immunized BALB/c mouse chronic asthma model assessed as reduction of methacholine-induced airway hyperreactivity at 100 nM treated intranasally on days 15, 16, 22, and 23 at 30 mins before OVA challenge measured on day 71; type: functional, organism-based
Mus musculus [23] = organism: Mus musculus; test: Antiasthmatic activity in OVA-immunized BALB/c mouse chronic asthma model assessed as reduction of area of proliferating smooth muscle cell at 100 nM treated intranasally on days 15, 16, 22, and 23 at 30 mins before OVA challenge measured on day 71 by PCNA+-staining; type: functional, organism-based
Mus musculus [24] = organism: Mus musculus; test: Antiasthmatic activity in OVA-immunized BALB/c mouse acute asthma model assessed as reduction of methacholine-induced airway hyperreactivity at 100 nM treated intranasally on days 15, 16, 22, and 23 at 30 mins before OVA challenge; type: functional, organism-based
Mus musculus [25] = organism: Mus musculus; test: Antiasthmatic activity in OVA-immunized BALB/c mouse acute asthma model assessed as reduction of airway inflammation at 100 nM treated intranasally on days 15, 16, 22, and 23 at 30 mins before OVA challenge by hematoxylin and eosin staining; type: functional, organism-based
Mus musculus [26] = organism: Mus musculus; test: Antiasthmatic activity in OVA-immunized BALB/c mouse chronic asthma model assessed as decrease in number of eosinophils in BAL fluid at 100 nM treated intranasally on days 15, 16, 22, and 23 at 30 mins before OVA challenge measured on day 71; type: functional, organism-based
Mus musculus [27] = organism: Mus musculus; test: Antiasthmatic activity in lymphnode cells isolated from 25 days OVA-immunized BALB/c mouse acute asthma model assessed as reduction of IL-13 and IL-5 production at 100 nM measured after 3 days re-stimulation by ELISA; type: functional, cell-based
Mus musculus [28] = organism: Mus musculus; test: Antiasthmatic activity in OVA-immunized BALB/c mouse chronic asthma model assessed as inhibition of airway remodeling at 100 nM treated intranasally on days 15, 16, 22, and 23 at 30 mins before OVA challenge measured on day 71; type: functional, organism-based

CC(C)C[C@H](N)C(=O)N[C@H](C(=O)N[C@@H](CCCNC(=N)N)C(=O)NCC(=O)N[C@H]1CSSC[C@@H](C(=O)N[C@@H](Cc2ccccc2)C(=O)N[C@H](C(=O)N[C@@H](CCCNC(=N)N)C(=O)O)C(C)C)NC(=O)[C@@H]2CCCN2C(=O)[C@H](CCCCN)NC(=O)[C@@H]2CCCN2C(=O)[C@@H]2CCCN2C(=O)[C@H](Cc2ccc(O)cc2)NC(=O)[C@H](CO)NC(=O)[C@H](CCCCN)NC(=O)[C@H]([C@@H](C)O)NC(=O)[C@H](Cc2c[nH]c3ccccc23)NC1=O)C(C)C (H-LVRGCWTKSYPPKPCFVR-OH; disulfide 5-15)
Activity (Splenocyte [1]): Active | Activity (Mus musculus [2]): inactive | Activity (Mus musculus [3]): Active | Activity (Mus musculus [4]): Active | Activity (Mus musculus [5]): Active | inhibition (INH) (Mus musculus [6]): 60% | Activity (Mus musculus [7]): Active | Activity (Mus musculus [8]): Active | Activity (Mus musculus [9]): inactive | Activity (Mus musculus [10]): Active | Activity (Mus musculus [11]): Active | Activity (Mus musculus [12]): inactive | Activity (Splenocyte [13]): Active | Ki [14]: 0.11 µM | inhibition (Mus musculus [15]): Dose-dependent effect | Activity (Mus musculus [16]): Active | Activity (Mus musculus [17]): Active | Activity (Mus musculus [18]): Active | Activity (Mus musculus [19]): Active | Activity (Mus musculus [20]): Active | Activity (Mus musculus [21]): Active | Activity (Mus musculus [22]): Active | Activity (Mus musculus [23]): Active | Activity (Mus musculus [24]): Active | Activity (Mus musculus [25]): Active | Activity (Mus musculus [26]): Active | Activity (Mus musculus [27]): Active | Activity (Mus musculus [28]): Active

CC[C@H](C)[C@@H]1NC(=O)[C@@H]2CCCN2C(=O)[C@@H]2CCCN2C(=O)[C@H]([C@@H](C)CC)NC(=O)[C@H](CO)NC(=O)[C@H](CCCCN)NC(=O)[C@H]([C@@H](C)O)NC(=O)[C@@H]2CSSC[C@H](NC1=O)C(=O)N[C@@H](Cc1ccccc1)C(=O)N1CCC[C@H]1C(=O)N[C@@H](CC(=O)O)C(=O)NCC(=O)N[C@@H](CCCNC(=N)N)C(=O)N2
Activity (Splenocyte [1]): Active | Activity (Mus musculus [3]): inactive | Activity (Mus musculus [4]): Active | Activity (Mus musculus [5]): Active | inhibition (INH) (Mus musculus [6]): 60% | Activity (Mus musculus [7]): Active | Activity (Mus musculus [8]): Active | Activity (Mus musculus [9]): inactive | Activity (Mus musculus [10]): Active | Activity (Mus musculus [11]): Active | Activity (Mus musculus [12]): inactive | Ki [14]: 0.008 µM | inhibition (Mus musculus [15]): Dose-dependent effect | Activity (Mus musculus [16]): Active | Activity (Mus musculus [18]): Active | Activity (Mus musculus [19]): Active | Activity (Mus musculus [20]): Active | Activity (Mus musculus [21]): Active | Activity (Mus musculus [22]): Active | Activity (Mus musculus [23]): Active | Activity (Mus musculus [24]): Active | Activity (Mus musculus [25]): Active | Activity (Mus musculus [26]): Active | Activity (Mus musculus [27]): Active | Activity (Mus musculus [28]): Active
